For one data set, the system named is peripheral olig2^+ OPCs. In words: Quantification of peripheral olig2+ OPCs at 3 dpf in drug-treated olig2:dsred larvae. The class given is in vivo, zebrafish. To be noted: for number of peripheral olig2+ OPCs: 24 to 72 hpf; for peripherally migrated OPCs at 3 dpf after neurotransmitter receptor antagonist: compared to control.
The subject of data set [1] is OPC migration through the MEP TZ. The following applies: 10 μM, 24 to 72 hpf, 3 larvae imaged 55 to 72 hpf. As to the method: Embryos were anesthetized with 0.01% 3-aminobenzoic acid ester (Tricaine), immersed in 0.8% low-melting point agarose and mounted laterally in glass-bottomed 35 mm petri dishes (Electron Microscopy Sciences). After mounting, the petri dish was filled with egg water containing PTU and Tricaine. For some experiments, chemical compounds were also dissolved in the water. A 25× multi-immersion objective (NA=0.8), 40× oil objective (NA=1.4) and a 40× water objective (NA=1.1) mounted on a motorized Zeiss AxioObserver ZI microscope equipped with a Quorum WaveFX-XI spinning disc confocal system (Quorum Technologies Inc.) were used to capture images. Image processing was performed with MetaMorph and Photoshop to enhance brightness and contrast of images. The Fiji plugin MTrackJ was used to annotate time-lapse movies (Meijering et al., 2012).
In order to distinguish OPCs from motor neurons, we used embryos expressing olig2:dsred and sox10:eos, where sox10 regulatory elements drive expression of Eos in central and peripheral glia. […] We treated these embryos with 10 μM of CGS-15943 from 24 to 72 hpf and imaged 3 larvae (10 nerves total) from 55 to 72 hpf.

The test system of another data set is perineurial glia (PG). The following applies: 1.25 μm CGS-15943, 36 to 55 hpf.
A further data set relates to MEP glia. In words: Presence of MEP glia (sox10+/olig2+ cells, wif1 in situ hybridization) on motor nerves. The following applies: for percentage of motor nerves with sox10+/olig2+ MEP glia at the MEP TZ: 36 to 72 hpf, vs DMSO, p=0.14. The class given is in vivo, zebrafish. The procedure:
Larvae were fixed in 4% PFA at 4° C. overnight and stored in 100% methanol at −20° C. and processed for in situ RNA hybridization. Plasmids were linearized with appropriate restriction enzymes and cRNA preparation was carried out using Roche DIG-labeling reagents and RNA polymerases (NEB). We used a previously published probe for wif1 (Smith et al., 2014). After in situ hybridization, embryos were embedded in 1.5% agarose/30% sucrose and frozen in 2-methylbutane chilled by immersion in liquid nitrogen. We collected 20 μm transverse sections on microscope slides using a cryostat microtome and covered with 75% glycerol. Images were obtained using a Zeiss AxioObserver inverted microscope using a 40× oil immersion objective. All images were imported into Adobe Photoshop. Adjustments were limited to levels, contrast, and cropping.
We therefore sought to determine whether antagonizing the A2a AR lead to ectopic OPC migration simply by perturbing MEP glial development. MEP glia can be identified by the co-expression of sox10:eos and olig2:dsred as well as expression of wnt inhibitory factor 1 (wif1) (Smith et al., 2014).

Another data set relates to larvae. Kind of data set: Toxicity, death or morphological defects of treated or injected larvae. To be noted: 40 μM, 36 to 72 hpf, n=1 survivor.
In a further data set the test system is Eos^+ cells. In words: Number of Eos+ cells (Schwann cells and MEP glia) per motor nerve in sox10:eos larvae. The following applies: 36 to 72 hpf, 72 hpf sox10:eos larvae, p=0.08. In kind it is in vivo, zebrafish.
Data set [2] concerns peripheral OPCs myelinating spinal motor axons. Kind of data set: gpr126 mutant peripheral neuropathy model: peripheral OPCs and myelination of spinal motor nerves. In kind it is in vivo, zebrafish. The text has this:
This led us to hypothesize that OPCs could be pharmacologically recruited onto peripheral nerves in order to myelinate them. […] However, in these studies, OPCs populated the nerve in the context of genetic mutations resulting in the death or absence of both SCs and MEP glia. Therefore, we wanted to determine if it was possible to recruit OPCs to myelinate peripheral motor nerves in a model more closely resembling human peripheral neuropathies, in which SCs are present, but fail to myelinate. To do this, we used zebrafish harboring a mutation in g protein coupled receptor 126 (gpr126), a model of peripheral neuropathy in which SCs ensheath, but fail to myelinate peripheral nerves (Monk et al., 2009). OLs are present in normal numbers in these mutants, and central myelination is completely normal (Monk et al., 2009).
Therefore, we tested whether treatment with the A2a AR antagonist would result in peripherally-migrated OPCs ensheathing peripheral spinal motor nerves in these mutants. […] We then performed in vivo, time-lapse imaging on nkx2.2a:megfp;olig2:dsred;gpr126^−/− mutants in order to visualize whether these peripheral OPCs initiated myelination of peripheral nerves. The transgene nkx2.2a:megfp is expressed by pre-myelinating OPCs and enables clear visualization of membrane structures (Kucenas et al., 2008a). No other cells in the spinal cord or at the MEP TZ express both nkx2.2a and olig2, so use of these transgenes allowed us to unambiguously identify membrane sheaths coming from OPCs. […] Thin OPC membrane processes extended toward peripheral motor axons and formed membrane sheaths around them (FIG. 6D). The timing of sheath initiation on peripheral axons coincided with sheath initiation within the spinal cord, and some peripheral sheaths stabilized and elongated during the course of the time-lapse (FIG. 6D). This time-lapse data rules out the possibility that SCH-58261 treatment stimulates SCs to myelinate the nerve, since nkx2.2a^+ OPC processes can be clearly seen ensheathing nerve segments.
To examine whether these membrane sheaths were in fact myelin, we treated gpr126 mutants from 36 to 72 hpf with SCH-58261 or DMSO, fixed larvae at 4 dpf, and labeled with an antibody specific to myelin basic protein (MBP) using immunohistochemistry (Kucenas et al., 2009). In mutants treated with DMSO, we observed MBP only on a short segment of the proximal nerve root (FIG. 6E), which is consistent with our previous data showing that differentiated MEP glia express MBP in this region (Smith et al., 2014). […] As further confirmation that peripheral OPCs myelinate spinal motor nerve roots following treatment with SCH-58261, we imaged gpr126^−/− larvae expressing the transgenes mbp:egfp and olig2:dsred from 72 to 86 hpf (n=3) (FIG. 6F). In these time-lapses, we observed olig2^+ OPCs beginning to ensheath peripheral nerves with mbp^+ membrane tubes. Out of 12 nerves imaged, OPCs migrated out of the spinal cord onto 4 nerves, and an additional 3 nerves had OPCs already present at the beginning of the time-lapse. Multiple EGFP^+ membrane tubes extended from single OPCs and ensheathed most of the nerve root on all 7 nerves with OPCs present. These long membrane tubes were consistent with the pattern of MBP antibody labeling on the nerves of SCH-58261-treated mutants (FIG. 6E). Both the MBP antibody and mbp:egfp labeling were closely associated with an olig2^+ cell body, providing further evidence that peripherally-migrated OPCs and not SCs, initiate myelination in gpr126 mutants treated with SCH-58261 (FIGS. 6D&E). From these experiments, we conclude that OPCs can be recruited onto peripheral motor nerves and initiate myelination, even in the presence of MEP glia and SCs.

The next data set has as its system peripheral olig2^+ cells. In words: Chemical screen of the LOPAC 1280 library: peripheral olig2+ cells scored in olig2:dsred larvae at 72 hpf. In kind it is in vivo, zebrafish. The following applies: 4 μM, 24 to 72 hpf, pilot experiment, positive control.
The mark [3] stands for this setting: dose responses of selective A1, A2b, A3 antagonists.
The mark [4] stands for this setting: gpr126−/− mbp:egfp;olig2:dsred, imaged 72 to 86 hpf, 12 nerves imaged.

Molecules are shown by their SMILES. Entries after “also recorded” stand apart in the source; their conditions may differ. Counter-ions that a name gives are not always drawn.

For `Cn1c(=O)c2[nH]c(C3CCCC3)nc2n(C)c1=O` [CPT, 8-cyclopentyltheophylline], the “number of peripheral olig2+ OPCs” value with peripheral olig2^+ OPCs (setting [3]) is “did not observe peripheral OPCs”.

Turning to `Nc1nc2ccc(Cl)cc2c2nc(-c3ccco3)nn12` [CGS-15943, 9-Chloro-2-(2-furanyl)-[1,2,4]triazolo[1,5-c]quinazolin-5-amine], the “number of peripheral olig2+ OPCs” value with peripheral olig2^+ OPCs (doses of 1.25 and 20 μM, p<0.01) is reported as “significant peripheral OPC migration”. Besides, in data set [1], the “OPCs migrating through a single MEP TZ” value was at most 2, the “nerves on which OPC cell bodies migrated onto peripheral spinal motor nerves during imaging” value is 6 out of 10, the “nerves on which OPCs extend membrane processes through the MEP TZ” value was 9 out of 10 and the “nerves with OPCs already present before 60 hpf” value was 3 out of 10. Moreover, the “nerves with olig2+/sox10− motor neurons in the periphery” value in data set [1] is 0 out of 10. In addition, in the data set on perineurial glia (PG) (55 hpf larvae, 10 nerves per larva), the “PG extension from the spinal cord along the motor nerve (mean SEM)” value came to 24.94±1.75 μm. Moreover, in the data set on perineurial glia (PG) (p=0.28), the “PG extension compared with DMSO-treated larvae” value is listed as “no difference in PG extension”. In the data set with MEP glia (1.25 μM), the “wif1+ MEP glia (in situ hybridization)” value is listed as “observed wif1^+ MEP glia; also recorded: have wif1^+ MEP glia” and the “percentage of motor nerves with sox10+/olig2+ MEP glia at the MEP TZ” value is given as “no differences”.

On to `CCCn1c(=O)c2[nH]c(-c3ccc(OCC(=O)Nc4ccc(C#N)cc4)cc3)nc2n(CCC)c1=O` [MRS-1754], for which the “number of peripheral olig2+ OPCs” value in the data set with peripheral olig2^+ OPCs (setting [3]) is “did not observe peripheral OPCs”.

Take `CC1(C)[C@@H](OC(=O)CCC(=O)O)CC[C@]2(C)[C@H]3C(=O)C=C4[C@@H]5C[C@@](C)(C(=O)O)CC[C@]5(C)CC[C@@]4(C)[C@]3(C)CC[C@@H]12` [carbenoxolone]: the “peripherally-migrated OPCs, treatment alone versus combined with TeNT mRNA” value in the data set on peripheral olig2^+ OPCs (10 μM, 36 to 72 hpf, counted at 72 hpf, p=0.04) was “more peripherally-migrated OPCs”. In the data set on peripheral olig2^+ OPCs (36 to 72 hpf, p<0.001 for 10 μM and p<0.0001 for 20 μM), the “peripherally-migrated OPCs at 3 dpf” value is on record as “significant numbers of peripherally-migrated OPCs”. Besides, the “larvae that died at this dose” value in the data set on larvae came to 9.

For the compound `Nc1nc2c(cnn2CCc2ccccc2)c2nc(-c3ccco3)nn12` [SCH-58261, 7-(2-phenylethyl)-5-amino-2-(2-furyl)-pyrazolo-[4,3-e]-1,2,4-triazolo[1,5-c]pyrimidine], the “number of peripheral olig2+ OPCs” value in the data set on peripheral olig2^+ OPCs (10 μM, p<0.01 compared to DMSO) was “significant numbers of peripheral olig2^+ OPCs”. Further, in the data set with peripheral olig2^+ OPCs (10 μM, exposure beginning later than 54 hpf or ending earlier than 54 hpf, counted at 3 dpf), the “peripheral OPC migration by treatment window” value is “did not result in any peripheral OPC migration”. Also, the “peripheral OPCs in WT or adora2aa−/− mutants” value in the data set on peripheral olig2^+ OPCs (SCH-58261 36 to 72 hpf, olig2:dsred, treatment p<0.0001, genotype p=0.53) is “observed peripheral OPCs in both genotypes”. Besides, in the data set with Eos^+ cells, the “number of Eos+ cells per nerve compared with DMSO” value is recorded as “not significantly different”. For the same compound, the “percentage of motor nerves with sox10+/olig2+ MEP glia at the MEP TZ” value in the data set on MEP glia (10 μM) is listed as “no differences”. For the same compound, the “olig2+ OPCs in the periphery of gpr126 mutants” value in data set [2] (10 μM, 36 to 72 hpf, vs DMSO, p=0.009) is listed as “significant number of olig2^+ OPCs in the periphery”. For the same compound, in data set [2] (gpr126 mutants treated 36 to 72 hpf, fixed at 4 dpf), the “MBP antibody labeling on peripheral nerves” value was “MBP labeling was present further distally along the nerve”. Besides, the “nerves with OPCs on which EGFP+ membrane tubes ensheathed most of the nerve root” value in data set [2] (gpr126−/− mbp:egfp;olig2:dsred, imaged 72 to 86 hpf) stood at 7 nerves. Besides, in data set [2] (setting [4]), the “additional nerves with OPCs already present at the beginning of the time-lapse” value came to 3 nerves and the “nerves onto which OPCs migrated out of the spinal cord during time-lapse” value was 4 nerves. In addition, the “ensheathment of peripheral motor axons by nkx2.2a+/olig2+ OPCs (time-lapse)” value in data set [2] (nkx2.2a:megfp;olig2:dsred;gpr126−/−, treated 36 to 72 hpf) was “initiate ensheathment of peripheral spinal motor axons”.

`NS(=O)(=O)c1cccc2c1c([N+](=O)[O-])cc1[nH]c(=O)c(=O)[nH]c12` [NBQX, 2,3-Dioxo-6-nitro-1,2,3,4-tetrahydrobenzo[f]quinoxaline-7-sulfonamide]: in the data set on peripheral olig2^+ OPCs (36 to 72 hpf, olig2:dsred), the “peripherally migrated OPCs at 3 dpf after neurotransmitter receptor antagonist” value is recorded as “significant numbers of peripherally-migrated OPCs”.

On to `CCOC(=O)C1=C(C)NC(c2ccccc2)=C(C(=O)OCc2ccccc2)C1C#Cc1ccccc1` (stereo not drawn) [MRS-1191], for which the “number of peripheral olig2+ OPCs” value in the data set on peripheral olig2^+ OPCs (setting [3]) is given as “did not observe peripheral OPCs”.

For the compound `COc1cc2ncnc(Nc3cccc(Cl)c3)c2cc1OC` [AG1478], in the data set with peripheral olig2^+ cells, the “peripheral OPC migration” value was “robust peripheral OPC migration”.

As to `C[C@]12N[C@H](Cc3ccccc31)c1ccccc12` [MK-801, (5S,10R)-(+)-5-Methyl-10,11-dihydro-5H-dibenzo[a,d]cyclohepten-5,10-imine maleate], the “peripherally migrated OPCs at 3 dpf after neurotransmitter receptor antagonist” value in the data set with peripheral olig2^+ OPCs (36 to 72 hpf, olig2:dsred) was “resulted in peripheral OPC migration”.

For the origin of these results see patent US11413324B2, “Compositions and methods for treating peripheral nerve disease, disorders, and injuries” (University of Virginia Patent Foundation, priority 2017, dated 2022).
